Measurements published in patent US12275927B2, “Microbial contamination control in bioprocessing” (The Regents of the University of California, priority 2019, dated 2025).

Tests used:
Azospira suillum PS = conditions: 40 μM chlorite, unpublished observations
parental LMG194 = conditions: read-out: chlorite IC50; LMG194, growth (OD600) 24 hours at 37° C., MRM medium
Protocol: (§1) 100 μL of water was added to the negative control wells. The plate was then placed in a shaker and cultivated overnight at 37° C., 250 rpm. IC50 were determined 24 hours after inoculation by measuring OD600.

wtCld-expressing OW95 = system: wtCld-expressing OW95
Protocol: as §1

[1] = system: RFP-expressing E. coli, OW94; conditions: read-out: chlorite IC50; OW94 negative control, growth (OD600) 24 hours at 37° C., MRM medium
Protocol: as §1

[2] = system: cCld expressing strain OW116
Protocol: as §1

OW116 = system: OW116
Protocol: (§2) A 2 L round-bottom autoclavable laboratory fermenter (BiOENGiNEERiNG), was operated as an iso-volumetric chemostat with 1 L of MRM medium in the bioreactor vessel. Temperature, dissolved oxygen (dO), and pH were monitored during the course of the experiments. Temperature was set and maintained at 37° C. pH was set to 7.2 and adjusted automatically based on the real time pH value with 1M NaOH or 1M HCl. dO was set to 20% of the maximal dO value at 37° C. with constant air flow of 2 L/min. Constant dO was maintained by automatic agitation speed adjustment based on the real-time dO value. Agitation speed varied between 200-700 RPM, depending on oxygen demand. Two separate pumps were used to control medium inflow and waste outflow rates.
(§3) The chemostat at first operated as a batch culture (dilution rate equal to 0), until the culture reached mid-log phase (OD600 of ˜0.7-1.0), then dilution rate was set to be approximately equal to the cell growth rate. This allowed the bioreactor to achieve a zero net growth while maintaining a near-maximum specific growth rate. […] All growth data were plotted and calculated using the Prism 7 software.

OW94 = system: OW94
Protocol: as §2, §3

[3] = system: C. crescentus phage CR-30; conditions: incubated with chlorite at 30 C
Protocol: (§4) Influent wastewater samples were collected from the East Bay Municipal Utility District's wastewater treatment plant in Oakland, CA, and filtered through […] filters to remove debris and microbes. To make a phage enrichment culture, 5 mL of filtered wastewater was mixed with 5 mL of 2× LB medium and inoculated with 100 μL of stationary E. coli cells, incubated for 48 hours at 37° C., 50 RPM. Next, a sterile cotton swab was dipped into an overnight E. coli culture, smeared on an LB agar plate, and 10 μL of the phage enrichment culture was then spotted on the plate. The plate was incubated overnight at 37° C. […] Phage particles from the clear zone were picked into the phage buffer (10 mM Tris, 1 mM CaCl2 10 mM MgCl2, 68 mM NaCl, pH 7.5, adapted from the Phage Hunting Program, University of Pittsburgh), followed by dilution to extinction and plating to obtain single plaques with pure phage cultures. Phage cultures were maintained at 4° C. in the phage buffer. […] Samples were taken at designated time points and mixed with PYE (0.3%) agar and log phase (OD660 0.1-04) C. crescentus culture before plating on PYE plates. Plaque forming unites were counted after 24 hours.

E. coli lytic phages = conditions: 4 mM chlorite, 37° C.
Protocol: as §4

SCW enrichment culture = conditions: 4 mM chlorite, OW117 bioreactor, SCW enrichment added
Protocol: as §2

[4] = system: contaminants from Strawberry Creek water; conditions: 10 mM chlorite spiked, reactor contaminated with 1% (v/v) creek water, OW115
Protocol: as §2

[5] = system: cld deletion (Acid) mutant; conditions: 40 μM chlorite, unpublished observations
[6] = system: SCW enrichment culture, OW117 and OW118; conditions: SCW enrichment vs OW117 vs OW118
Description: as §3

[7] = system: chlorite hyper-resistant strain OW105; conditions: MRM medium
Protocol: as §1
OW95 cells were revived from freezer stocks, transferred into liquid MRM medium, and induced for Cld expression as described above.

[8] = 4 mM chlorite spiked into chemostat at equilibrium growth, 37° C.
[9] = batch cultures, different chlorite concentrations

Q: What does the source list for Sodium chlorite?
A: aerobic growth in the presence of chlorite (Azospira suillum PS): grew aerobically; IC50 (parental LMG194): 0.3 mM; increase in chlorite resistance compared to negative controls (wtCld-expressing OW95; OW95 vs OW94 and LMG194): three-fold increase; IC50 (wtCld-expressing OW95; read-out: chlorite IC50, OW95, Cld induced at 26° C., growth (OD600) 24 hours at 37° C., MRM medium): 1.74 mM; IC50 [1]: 0.56 mM; chlorite resistance of cCld relative to wtCld ([2]; cCld vs wtCld): 5 fold; IC50 ([2]; read-out: chlorite IC50, OW116, growth (OD600) 24 hours at 37° C., MRM medium): 8.94 mM; specific growth rate after the chlorite spike (OW116; [8]): 0.64 ± 0.10 h⁻¹; reduction of specific growth rate after the chlorite spike (OW116; 4 mM chlorite, chemostat, vs before spike): ~20%; specific growth rate in batch culture as chlorite concentration increased (OW116; [9]): only reduced slightly; specific growth rate after the chlorite spike (OW94; [8]): 0.01 ± 0.07 h⁻¹; specific growth rate in batch culture as chlorite concentration increased (OW94; [9]): drastically decreased; phage inactivation [3]: chlorite-induced phage inactivation; phage inactivation (E. coli lytic phages): chlorite-induced phage inactivation; indigo production after addition of contaminants (SCW enrichment culture): indigo was steadily produced until the end of the experiment; effect of chlorite spike on the contaminated bioreactor [4]: contaminants were inhibited and washed out; aerobic growth in the presence of chlorite [5]: failed to grow; batch growth in medium with chlorite [6]: only OW118 could endure medium with chlorite; chlorite concentration in which the strain was able to grow, reaching a similar final OD600 as without chlorite control ([7]; end of directed evolution, 37° C.): 8 mM; IC50 ([7]; read-out: chlorite IC50, OW105, growth (OD600) 24 hours at 37° C.): 4.6 mM
